Results: patent publication US20240133870A1, “COMBINED TREATMENT FOR CANCER” (Yeda Research and Development Co. Ltd., priority 2021, published 2024)

Columns and labels:
Assay type in all cases: cell-based, human
[1] = tested on: SK-MEL-5 BRAF (V600E) melanoma cells; experiment: Co-culture of stroma (WI-38 or HS-5) and cancer cells; details: co-culture with HS-5; inhibitor added to vemurafenib
Procedure: SK-MEL-5 BRAF (V600E) melanoma cells were co-cultured with the lung-derived stromal cell line WI-38 or with the bone marrow-derived stromal cell line HS-5 with or without vemurafenib (4 μM). […] Vehicle—DMSO, EGFRi—gefitinib (0.1 μM), EGFRi/HER2i—lapatinib (10 nM), METi—crizotinib (0.1 μM), FGFRi—AZD4547 (50 nM), NFkB/TNFRi—CAPE (10 μM), TGFBRi-LY2109761 (0.5 μM), gp130i—SC144 (1 nM). […] Error bars represent standard error. […] Error bars represent standard error. […] Human BRAF (V600E) melanoma cell lines UACC62 or G361 were used to generate xenograft tumor models in various tissues of nude mice. When tumors reached a volume of 500-700 μmm^3, they were resected, sliced, and cultured ex-vivo in the presence of different drug combinations or DMSO control. Following 4 days of drug treatment, slices were fixed, embedded in paraffin blocks, and subjected to immunohistochemistry, using anti-pERK antibody, or to immuno-fluorescence, using anti-pFGFR1 antibody. BRAFi (vemurafenib, 4 μM), FGFRi (AZD4547, 2 μM). Scale bar represents 50 μm.
Four hours later, the melanoma BRAF (V600E) mutated cell line SK-MEL-5 was seeded on top of the stromal cells at a concentration of 1700 cells per well, or seeded without stroma. […] Concentrations of the inhibitors were based on dose curves with SK-MEL-5. For each inhibitor of potential mechanism of resistance, the maximal concentration with minimal effect (toxicity) on cell growth was selected (Cmax).
To compare rScore value of stroma-mediated resistance with or without a given inhibitor, the rScore values of each inhibitor in the presence of stroma, was calculated. As a reduction in rScore may stem from mere toxicity of the inhibitor, rather than the abrogation of the stroma mediated resistance, each inhibitor rScore was penalized by its toxicity.
rScoreinhibitor=rScoreinhibitor+(rScorestroma−rScoreinhibitor)*tOxicitY(Cmax)inhibitor

[2] = tested on: colorectal BRAF (V600E) patient tumor; experiment: EVOC of a colorectal BRAF (V600E) patient biopsy, viability; details: Dabrafenib 4 μM/trametinib 0.5 μM with or without trastuzumab or AZD4547 2 μM
Procedure: Freshly resected biopsy was sliced, and cultured ex vivo. Following 4 days of drug treatment, slices were fixed and embedded in paraffin blocks. FFPE slices were stained by H&E, and the percentage of viable cancer cells was morphologically assessed on H&E stained sections by a pathologist as the ratio between viable cancer cell area and total cancer area (viable cancer cells plus necrotic cancer cells). […] Vehicle—DMSO, FGFRi—AZD4547 2 μM, HER2i—trastuzumab 30 g/ml, BRAFi/MEKi—Dabrafenib 4 μM/trametinib 0.5 μM.
Tumor tissue was obtained from patients at the time of operation or at the time of tissue core biopsy. Following resection, the fresh tissue was placed in ice-cold PBS for immediate transfer to the lab for ex vivo organ culturing. […]
Immunohistochemistry of EVOC tissues: To assess response therapy, 4 μm FFPE tissue slices were stained with H&E, or with specific antibodies: anti-pERK (Cell Signaling, #4370) followed by HRP conjugated secondary antibody (anti-Rabbit HRP, ZUC032, ZytoChem) and DAB staining (DAB substrate kit, DAB057, ZytoChem). […] All slides were scanned using the Pannoramic SCAN II (3[sequence]) and analyzed by a pathologist. The percentage of viable cancer cells was morphologically assessed on H&E stained sections by a pathologist as the ratio between viable cancer cell area and total cancer area (viable cancer cells plus necrotic cancer cells).

[3] = tested on: pERK in UACC62 xenograft tumors; experiment: EVOC of xenograft tumors in various tissues, pERK immunohistochemistry; details: skin tumors; AZD4547 2 μM added to vemurafenib 4 μM
Procedure: (§1) SK-MEL-5 BRAF (V600E) melanoma cells were co-cultured with the lung-derived stromal cell line WI-38 or with the bone marrow-derived stromal cell line HS-5 with or without vemurafenib (4 μM). […] Vehicle—DMSO, EGFRi—gefitinib (0.1 μM), EGFRi/HER2i—lapatinib (10 nM), METi—crizotinib (0.1 μM), FGFRi—AZD4547 (50 nM), NFkB/TNFRi—CAPE (10 μM), TGFBRi-LY2109761 (0.5 μM), gp130i—SC144 (1 nM). P-values were calculated by two-sided t-test. *** P<0.001. Error bars represent standard error. […] P-values were calculated by two-sided t-test. *** P<0.001. Error bars represent standard error. […] Human BRAF (V600E) melanoma cell lines UACC62 or G361 were used to generate xenograft tumor models in various tissues of nude mice. When tumors reached a volume of 500-700 μmm^3, they were resected, sliced, and cultured ex-vivo in the presence of different drug combinations or DMSO control. Following 4 days of drug treatment, slices were fixed, embedded in paraffin blocks, and subjected to immunohistochemistry, using anti-pERK antibody, or to immuno-fluorescence, using anti-pFGFR1 antibody. BRAFi (vemurafenib, 4 μM), FGFRi (AZD4547, 2 μM). […]
(§2) For the ex-vivo experiments EVOCs from immunocompromised mice bearing human tumors were generated, as further described hereinbelow. For the in-vivo validation experiments, mice bearing subcutaneous tumors were used; and response was measured by evaluating tumor volume. […]

[4] = tested on: pERK in G361 xenograft tumors; experiment: as above; details: co-treatment with vemurafenib 4 μM and AZD4547 2 μM
Procedure: as §1, §2

## AZD4547
[1]
  abrogation of stroma-mediated resistance to vemurafenib: needed to abrogate the resistance effect of HS-5
[2]
  cancer cell viability: did not improve the response to treatment
[3]
  pERK inhibition: near complete inhibition of pERK
[4]
  pERK downregulation: sufficient to downregulate pERK in all of the different tumor locations
